From patent US12344631B2, “C17 polar-substituted heteroaromatic synthetic triterpenoids and methods of use thereof” (REATA PHARMACEUTICALS, INC., priority 2019, dated 2025)

Columns and labels:
RAW 264.7 cells = assay: Nitric oxide suppression assay (IFNγ-induced NO production); format: cell-based, mouse; settings: for IC50: Mus musculus, RAW264.7, RAW 264.7 cells, 2 h pretreatment, 20 ng/mL interferon gamma 24 h, nitrite by Griess, read-out: NO IC50 (nM) (Mean ± SD); for NO IC50 Relative to RTA 402 (fold) (Mean ± SD): average of ratios from replicate experiments, benchmark RTA 402
Experimental: Tissue Culture. RAW 264.7, a mouse macrophage cell line, was obtained from American Type Culture Collection (Manassas VA) and maintained in the log phase of growth in Roswell Park Memorial Institute Medium 1640 (RPMI 1640) supplemented with 10% heat inactivated fetal bovine serum (FBS) and 1% penicillin-streptomycin. Cells were cultured and maintained in a humidified incubator at 37° C. under 5% CO2. Cells were sub-cultured every 3 days. […] All cell culture supplies were obtained from Life Technologies (Grand Island, NY) and VWR (Radnor, PA). Nitric Oxide Suppression Assay. RAW 264.7 cells were plated 1 day in advance of experimental treatments at a concentration of 30,000 cells per well onto Falcon-96 well clear bottom plates (Corning, NY) in a total volume of 200 μL per well using RPMI 1640 supplemented with 0.5% fetal bovine serum and 1% penicillin-streptomycin. The next day, cells were pretreated with compounds serially diluted from 1000× stocks. All compounds were dissolved in dimethyl sulfoxide (DMSO) at 10 mM stock solutions. Compounds were subsequently diluted in DMSO and RPMI 1640. Each well received a final concentration of 0.1% DMSO. Cells were pretreated for 2 hours and incubation at 37° C., followed by treatment with 20 ng/mL of interferon gamma (R&D Systems, Minneapolis, MN) per well for 24 hours. […] Afterwards, 50 μL of cell culture supernatant was transferred from each well into a new Falcon-96 well clear bottom plate. […] Afterwards, air bubbles were removed using ethanol vapor and absorbance was measured using a Spectramax M2e plate reader with a wavelength set to 525 nm. Viability was assessed using WST-1 cell proliferation reagent from Roche (Basel, Switzerland). After media was removed for the Nitric Oxide suppression assay, 15 μL of WST-1 reagent was added to each well of cells. Plates were briefly mixed on an orbital shaker and the cells were incubated at 37° C. for 30 minutes. Absorbance was measured using a Spectramax M2e plate reader with wavelengths set to 440 nm and 700 nm. For the ability of compounds to suppress the increase in nitric oxide release caused by interferon gamma, the absolute amount of nitrite that was produced in each well was extrapolated from the nitrite standards using a linear regression fit. All values were then normalized to the DMSO-interferon gamma treated wells and plotted as percent nitric oxide. IC50 values were calculated with a dependence on WST1 viability using Excel and/or GraphPad Prism (San Diego, CA).

[1] = test system: AML-12 hepatocyte cell line; assay: Glutathione assay (total glutathione, GSH-Glo); format: cell-based, mouse; settings: for EC50: Mus musculus, AML12, AML-12 cells, 24 hours, total glutathione, read-out: GSH EC50 (nM) (Mean ± SD); for GSH EC50 Relative to RTA 402 (fold) (Mean ± SD): benchmark RTA 402
Experimental: The effect of compound treatment on total glutathione levels was evaluated in the mouse AML-12 hepatocyte cell line. Glutathione—a tripeptide consisting of cysteine, glutamate, and glycine—is the major thiol-containing protein within the cell and regulates cellular redox balance. Glutathione also plays important roles in detoxification, protein glutathionylation, and iron-sulfur cluster biogenesis (Bachhawat and Yadav, 2018). Nrf2 regulates the expression of many genes involved in glutathione synthesis and metabolism, including both subunits of glutamate cysteine ligase (GCL), the enzyme that catalyzes the rate limiting step of glutathione biosynthesis (Thimmulappa et al., 2002). […] The next day, cells were treated with vehicle (DMSO) or test compound (0.03 nM to 1000 nM). Each well received a final concentration of 0.1% DMSO. Cells were incubated at 37° C., 5% CO2 for 24 hours. Total glutathione concentrations were measured using the GSH-Glo Glutathione Assay kit (Promega) according to the manufacturer's instructions. Briefly, a standard curve was prepared by serially diluting the provided glutathione solution. […] After a 30-minute incubation at room temperature, 100 μL of Luciferin detection reagent was added to all sample and standard wells and incubated for 15 minutes. Luminescence was measured using a PHERAstar plate reader. The EC50 value was determined using Excel and GraphPad Prism software. The basal concentration of glutathione was set to 0% and the highest concentration of glutathione produced following treatment with a test compound was set to 100% and a dose-response curve was generated. The dose-response curve was fit using nonlinear regression analysis and used to extrapolate the EC50 value.

[2] = test system: AREc32 reporter cell line (antioxidant response element of rat Gsta2, Nrf2 target gene); assay: AREc32 luciferase reporter activation; format: cell-based, human; settings: for AREc32 EC2X Relative to RTA 402 (fold) (Mean ± SD): average of ratios from replicate experiments, benchmark RTA 402; for AREc32 Relative to CC in Same Experiment (Mean ± SD): average of ratios from experiments with direct comparisons; for EC (2-fold): human, Arec32, 19 h, concentration increasing luminescence signal 2-fold above vehicle, nineteen hours, read-out: AREc32 EC2X (nM) (Mean ± SD)
Experimental: […] The effect of several compounds disclosed herein on luciferase reporter activation was assessed in the AREc32 reporter cell line (see Table 10 and Table 11). This cell line is derived from human breast carcinoma MCF-7 cells and is stably transfected with a luciferase reporter gene under the transcriptional control of eight copies of the antioxidant response element from the rat Gsta2 gene, an Nrf2 target gene ([…] et al., 1990). […] Twenty-four hours after plating, cells were treated with vehicle (DMSO) or test compounds at concentrations ranging from 0.03 to 1000 nM for nineteen hours. Media was removed and 100 μL of 1:1 mixture of the One-Glo Luciferase assay reagent and culture medium was added to each well. After incubation for 5 min at room temperature, the luminescence signal was measured on a PHERAstar plate reader. The EC2X value was determined using Excel and GraphPad Prism software. The fold increase in luminescence signal for cells treated with each concentration of compound relative to cells treated with vehicle was determined and a dose-response curve was generated. The dose-response curve was fit using nonlinear regression analysis and used to extrapolate the EC2X value.

CYP3A4 = CYP3A4 (Homo sapiens, UniProt P08684); assay: CYP3A4 (midazolam) inhibition in human liver microsomes; settings: human liver microsomes; for inhibition at 10 min, 1 μM: human, probe midazolam (5 μM); for CYP3A4 (Midazolam) % Inhibition: historical data performed under comparable conditions, 1 μM
CYP3A4, sequence (P08684 whole entry): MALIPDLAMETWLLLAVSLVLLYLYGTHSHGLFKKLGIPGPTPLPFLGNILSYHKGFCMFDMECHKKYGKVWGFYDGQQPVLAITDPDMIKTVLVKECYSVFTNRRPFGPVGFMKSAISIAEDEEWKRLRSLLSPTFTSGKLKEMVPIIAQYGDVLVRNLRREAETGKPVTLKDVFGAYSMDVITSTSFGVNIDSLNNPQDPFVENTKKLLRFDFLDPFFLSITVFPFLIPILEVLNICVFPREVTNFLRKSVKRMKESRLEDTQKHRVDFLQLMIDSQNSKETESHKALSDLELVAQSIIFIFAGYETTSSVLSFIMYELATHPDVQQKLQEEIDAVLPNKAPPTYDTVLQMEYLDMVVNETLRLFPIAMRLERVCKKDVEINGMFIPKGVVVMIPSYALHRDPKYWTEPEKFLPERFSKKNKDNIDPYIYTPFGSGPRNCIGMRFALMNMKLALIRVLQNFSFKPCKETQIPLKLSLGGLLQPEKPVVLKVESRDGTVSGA

Structure (SMILES) | IC50 (RAW 264.7 cells) [nM] | NO IC50 Relative to RTA 402 (fold) (Mean ± SD) (RAW 264.7 cells) | EC50 [1] [nM] | GSH EC50 Relative to RTA 402 (fold) (Mean ± SD) [1] | AREc32 EC2X Relative to RTA 402 (fold) (Mean ± SD) [2] | AREc32 Relative to CC in Same Experiment (Mean ± SD) ([2]; comparison compound CC1) | EC (2-fold) [2] [nM] | inhibition at 10 min, 1 μM (CYP3A4) [%] | AREc32 Relative to CC in Same Experiment (Mean ± SD) ([2]; comparison compound CC2) | AREc32 Relative to CC in Same Experiment (Mean ± SD) ([2]; comparison compound CC3) | CYP3A4 (Midazolam) % Inhibition (CYP3A4) [%]
Cc1nnc([C@]23CCC(C)(C)C[C@H]2[C@H]2C(=O)C=C4[C@@]5(C)C=C(C#N)C(=O)C(C)(C)[C@@H]5CC[C@@]4(C)[C@]2(C)CC3)o1 [CC1, reference compound] | 2.05 | 0.78 ± 0.10 | 1.09 ± 0.13 | 0.70 ± 0.12 | 0.79 ± 0.24 | 1.00 | 10.6 ± 2.73 | 20.7 | – | – | –
Cc1noc([C@]23CCC(C)(C)C[C@H]2[C@H]2C(=O)C=C4[C@@]5(C)C=C(C#N)C(=O)C(C)(C)[C@@H]5CC[C@@]4(C)[C@]2(C)CC3)n1 [CC2, reference compound] | 1.98 | 0.70 ± 0.18 | 2 ± 1.24 | 0.80 ± 0.16 | 0.74 ± 0.16 | – | 8.59 ± 1.88 | 45.8 | 1.00 | – | –
Cc1noc([C@]23CCC(C)(C)C[C@H]2[C@H]2C(=O)C=C4[C@@]5(C)C=C(C#N)C(=O)[C@@H](C)[C@@H]5CC[C@@]4(C)[C@]2(C)CC3)n1 [CC3, reference compound] | 1.34 | 0.40 ± 0.06 | 1.16 ± 0.53 | 0.43 ± 0.14 | 0.66 ± 0.21 | – | 7.11 ± 1.15 | 37.7 | – | 1.00 | –
C[C@@H]1C(=O)C(C#N)=C[C@]2(C)C3=CC(=O)[C@@H]4[C@@H]5CC(C)(C)CC[C@]5(c5nc(C(F)(F)F)no5)CC[C@@]4(C)[C@]3(C)CC[C@@H]12 [Compound T36] | 17.8 ± 9.89 | 3.95 ± 0.84 | 10.4 ± 1.62 | 5.40 ± 0.54 | 2.25 ± 0.31 | – | 33.7 ± 6.99 | – | – | – | –
CCc1noc([C@]23CCC(C)(C)C[C@H]2[C@H]2C(=O)C=C4[C@@]5(C)C=C(C#N)C(=O)[C@@H](C)[C@@H]5CC[C@@]4(C)[C@]2(C)CC3)n1 [Compound T37] | 3.45 ± 1.87 | 0.76 ± 0.12 | 1.69 ± 0.19 | 0.88 ± 0.13 | 0.69 ± 0.06 | – | 10.3 ± 1.35 | – | – | 1.58 ± 0.16 | –
CC1(C)CC[C@]2(c3noc(C(F)(F)F)n3)CC[C@]3(C)[C@H](C(=O)C=C4[C@@]5(C)C=C(C#N)C(=O)C(C)(C)[C@@H]5CC[C@]43C)[C@@H]2C1 [Compound T40] | 24.2 ± 7.64 | 7.76 ± 2.19 | 18.3 ± 2.19 | 8.96 ± 0.68 | 4.76 ± 0.93 | – | 64.9 ± 12.6 | – | – | – | –
CC1(C)CC[C@]2(c3noc(C(F)F)n3)CC[C@]3(C)[C@H](C(=O)C=C4[C@@]5(C)C=C(C#N)C(=O)C(C)(C)[C@@H]5CC[C@]43C)[C@@H]2C1 [Compound T41] | 9.84 ± 3.52 | 2.79 ± 0.64 | 4.85 ± 0.36 | 2.38 ± 0.29 | 1.52 ± 0.19 | – | 24.2 ± 3.36 | – | – | – | –
CC1(C)CC[C@]2(c3nc(C(F)F)no3)CC[C@]3(C)[C@H](C(=O)C=C4[C@@]5(C)C=C(C#N)C(=O)C(C)(C)[C@@H]5CC[C@]43C)[C@@H]2C1 [Compound T43] | 6.45 ± 1.29 | 1.90 ± 0.49 | 3.29 ± 0.55 | 1.60 ± 0.05 | 0.62 ± 0.09 | – | 9.92 ± 2.32 | – | 1.09 ± 0.09 | – | –
CC1(C)CC[C@]2(c3nnc(C(F)F)o3)CC[C@]3(C)[C@H](C(=O)C=C4[C@@]5(C)C=C(C#N)C(=O)C(C)(C)[C@@H]5CC[C@]43C)[C@@H]2C1 [Compound T44] | 4.24 ± 2.23 | 1.24 ± 0.04 | 2.05 ± 0.64 | 1.04 ± 0.06 | 0.57 ± 0.12 | 0.91 ± 0.21 | 8.62 ± 0.45 | – | – | – | –
CC1(C)CC[C@]2(c3nnc(C(F)(F)F)o3)CC[C@]3(C)[C@H](C(=O)C=C4[C@@]5(C)C=C(C#N)C(=O)C(C)(C)[C@@H]5CC[C@]43C)[C@@H]2C1 [Compound T45] | 12.9 ± 6.38 | 3.81 ± 0.34 | 8 ± 1.37 | 4.14 ± 0.35 | 1.95 ± 0.57 | – | 29.1 ± 2.09 | – | – | – | –
CCc1nnc([C@]23CCC(C)(C)C[C@H]2[C@H]2C(=O)C=C4[C@@]5(C)C=C(C#N)C(=O)C(C)(C)[C@@H]5CC[C@@]4(C)[C@]2(C)CC3)o1 [Compound T46] | 5.44 ± 2.81 | 1.60 ± 0.29 | 2.39 ± 0.29 | 1.24 ± 0.17 | 1.60 ± 0.44 | – | 24 ± 1.5 | – | – | – | –
COC(=O)[C@]12CCC(C)(C)C[C@H]1[C@H]1C(=O)C=C3[C@@]4(C)C=C(C#N)C(=O)C(C)(C)[C@@H]4CC[C@@]3(C)[C@]1(C)CC2 [RTA 402, Bardoxolone methyl, reference compound] | – | – | – | – | – | – | – | – | – | – | 48.4
CC1(C)CC[C@]2(NC(=O)C(C)(F)F)CC[C@]3(C)[C@H](C(=O)C=C4[C@@]5(C)C=C(C#N)C(=O)C(C)(C)[C@@H]5CC[C@]43C)[C@@H]2C1 [RTA 408, omaveloxolone, reference compound] | – | – | – | – | – | – | – | – | – | – | 56.6
